Measured values as given in the supplement of paper PMC6315032.

Key:
Test in all cases: apparent dissociation constant (pKDapp, Kinobeads competition, Cheng-Prusoff corrected) (-log10 M); higher = tighter binding
[1] = biological target: ADCK1 (UniProt Q86TW2); conditions: affinity matrix / lysate: Kinobeads, mixed HEK293/K-562/placenta lysate
[2] = biological target: AKT1 (UniProt P31749); conditions: affinity matrix / lysate: Kinobeads, mixed HEK293/K-562/placenta lysate
[3] = biological target: BMP2K (UniProt Q9NSY1); conditions: affinity matrix / lysate: Kinobeads, mixed HEK293/K-562/placenta lysate
[4] = biological target: BMPR1A (UniProt P36894); conditions: affinity matrix / lysate: Kinobeads, mixed HEK293/K-562/placenta lysate
[5] = biological target: CAMK2B (UniProt Q13554); conditions: affinity matrix / lysate: Kinobeads, mixed HEK293/K-562/placenta lysate
[6] = biological target: CAMK2G (UniProt Q13555); conditions: affinity matrix / lysate: Kinobeads, mixed HEK293/K-562/placenta lysate
[7] = biological target: CDC42BPA (UniProt Q5VT25); conditions: affinity matrix / lysate: Kinobeads, mixed HEK293/K-562/placenta lysate
[8] = biological target: CDK7 (UniProt P50613); conditions: affinity matrix / lysate: Kinobeads, mixed HEK293/K-562/placenta lysate
[9] = biological target: CSNK2A2 (UniProt P19784)
[10] = biological target: EPHB2 (UniProt P29323); conditions: affinity matrix / lysate: Kinobeads, mixed HEK293/K-562/placenta lysate
[11] = biological target: ERBB4 (UniProt Q15303); conditions: affinity matrix / lysate: Kinobeads, mixed HEK293/K-562/placenta lysate
[12] = biological target: GAK (UniProt O14976); conditions: affinity matrix / lysate: Kinobeads, mixed HEK293/K-562/placenta lysate
[13] = biological target: ICK (UniProt Q9UPZ9); conditions: affinity matrix / lysate: Kinobeads, mixed HEK293/K-562/placenta lysate
[14] = biological target: KDR (UniProt P35968); conditions: affinity matrix / lysate: Kinobeads, mixed HEK293/K-562/placenta lysate
[15] = biological target: MAP2K4 (UniProt P45985); conditions: affinity matrix / lysate: Kinobeads, mixed HEK293/K-562/placenta lysate
[16] = biological target: MAP3K15 (UniProt Q6ZN16); conditions: affinity matrix / lysate: Kinobeads, mixed HEK293/K-562/placenta lysate
[17] = biological target: MAP3K6 (UniProt O95382); conditions: affinity matrix / lysate: Kinobeads, mixed HEK293/K-562/placenta lysate
[18] = biological target: MARK3 (UniProt P27448); conditions: affinity matrix / lysate: Kinobeads, mixed HEK293/K-562/placenta lysate
[19] = biological target: NEK3 (UniProt P51956); conditions: affinity matrix / lysate: Kinobeads, mixed HEK293/K-562/placenta lysate
[20] = biological target: NEK7 (UniProt Q8TDX7); conditions: affinity matrix / lysate: Kinobeads, mixed HEK293/K-562/placenta lysate
[21] = biological target: NLK (UniProt Q9UBE8); conditions: affinity matrix / lysate: Kinobeads, mixed HEK293/K-562/placenta lysate
[22] = biological target: PAK4 (UniProt O96013); conditions: affinity matrix / lysate: Kinobeads, mixed HEK293/K-562/placenta lysate
[23] = biological target: PDIK1L (UniProt Q8N165); conditions: affinity matrix / lysate: Kinobeads, mixed HEK293/K-562/placenta lysate
[24] = biological target: PHKG2 (UniProt P15735); conditions: affinity matrix / lysate: Kinobeads, mixed HEK293/K-562/placenta lysate
[25] = biological target: PIK3C2A (UniProt O00443); conditions: affinity matrix / lysate: Lipid Kinobeads, mixed HeLa/Jurkat/K-562 lysate
[26] = biological target: PIK3C3 (UniProt Q8NEB9); conditions: affinity matrix / lysate: Lipid Kinobeads, mixed HeLa/Jurkat/K-562 lysate
[27] = biological target: PKN1 (UniProt Q16512); conditions: affinity matrix / lysate: Kinobeads, mixed HEK293/K-562/placenta lysate
[28] = biological target: RPS6KA1 (UniProt Q15418); conditions: affinity matrix / lysate: Kinobeads, mixed HEK293/K-562/placenta lysate
[29] = biological target: SRC (UniProt P12931); conditions: affinity matrix / lysate: Kinobeads, mixed HEK293/K-562/placenta lysate
[30] = biological target: STK35 (UniProt Q8TDR2); conditions: affinity matrix / lysate: Kinobeads, mixed HEK293/K-562/placenta lysate
[31] = biological target: TNIK (UniProt Q9UKE5); conditions: affinity matrix / lysate: Kinobeads, mixed HEK293/K-562/placenta lysate
[32] = biological target: TNK1 (UniProt Q13470); conditions: affinity matrix / lysate: Kinobeads, mixed HEK293/K-562/placenta lysate
[33] = biological target: TNK2 (UniProt Q07912); conditions: affinity matrix / lysate: Kinobeads, mixed HEK293/K-562/placenta lysate
[34] = affinity matrix / lysate: Kinobeads, mixed HEK293/K-562/placenta lysate
[35] = affinity matrix / lysate: Lipid Kinobeads, mixed HeLa/Jurkat/K-562 lysate

Measured: apparent dissociation constant (-log10 M)

COc1ccc(-c2ccc3c(N4CCOC[C@@H]4C)nc(N4CCOC[C@@H]4C)nc3n2)cc1CO [AZD8055]
< 6: [1] | [2] | [3] | [4] | [5] | [6] | [7] | [8] | [9]; [34] | [9]; [35] | [10] | [11] | [12] | [13] | [14] | [15] | [16] | [17] | [18] | [19] | [20] | [21] | [22] | [23] | [24] | [25] | [26] | [27] | [28] | [29] | [30] | [31] | [32] | [33]

CCNC(=O)Nc1ccc(-c2nc(N3CCOC[C@@H]3C)c3c(n2)C(C)(C)S(=O)(=O)C3)cc1 [CZ415]
< 6: [1] | [2] | [3] | [4] | [5] | [6] | [7] | [8] | [9]; [34] | [9]; [35] | [10] | [11] | [12] | [13] | [14] | [15] | [16] | [17] | [18] | [19] | [20] | [21] | [22] | [23] | [24] | [25] | [26] | [27] | [28] | [29] | [30] | [31] | [32] | [33]
